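How tested: cells in 96-well plates exposed to compound for 48 hours at five concentrations. At the TGI there is no net growth.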
Legend:
Test in all cases: growth of human tumour cells (NCI), 48 h
HS 578T breast = test system: HS 578T breast
MDA-MB-231 breast = test system: MDA-MB-231 breast
NCI-H522 lung = test system: NCI-H522 lung
SNB-75 CNS = test system: SNB-75 CNS
MALME-3M melanoma = test system: MALME-3M melanoma
NCI/ADR-RES ovarian = test system: NCI/ADR-RES ovarian
TK-10 renal = test system: TK-10 renal
U251 CNS = test system: U251 CNS
HT29 colon = test system: HT29 colon
MDA-MB-435 = test system: MDA-MB-435
PC-3 prostate = test system: PC-3 prostate
K-562 leukemia = test system: K-562 leukemia
MCF7 breast = test system: MCF7 breast
HL-60(TB) leukemia = test system: HL-60(TB) leukemia
DU-145 prostate = test system: DU-145 prostate
CAKI-1 renal = test system: CAKI-1 renal
KM12 colon = test system: KM12 colon
SN12C renal = test system: SN12C renal
SK-MEL-2 melanoma = test system: SK-MEL-2 melanoma
HCC-2998 colon = test system: HCC-2998 colon
SF-268 CNS = test system: SF-268 CNS
SW-620 colon = test system: SW-620 colon
CCRF-CEM leukemia = test system: CCRF-CEM leukemia
LOX IMVI melanoma = test system: LOX IMVI melanoma
HOP-92 NSCLC = test system: HOP-92 NSCLC
NCI-H226 lung = test system: NCI-H226 lung
A549 NSCLC = test system: A549 NSCLC
UACC-257 melanoma = test system: UACC-257 melanoma
SF-539 CNS = test system: SF-539 CNS
SK-MEL-5 melanoma = test system: SK-MEL-5 melanoma
SK-OV-3 ovarian = test system: SK-OV-3 ovarian
A498 renal = test system: A498 renal
HCT-15 colon = test system: HCT-15 colon
ACHN renal = test system: ACHN renal
SK-MEL-28 melanoma = test system: SK-MEL-28 melanoma
SF-295 CNS = test system: SF-295 CNS
NCI-H23 lung = test system: NCI-H23 lung
OVCAR-4 ovarian = test system: OVCAR-4 ovarian
UACC-62 melanoma = test system: UACC-62 melanoma
MDA-N = test system: MDA-N
T-47D breast = test system: T-47D breast
UO-31 renal = test system: UO-31 renal
RPMI-8226 leukemia = test system: RPMI-8226 leukemia
COLO 205 colon = test system: COLO 205 colon
OVCAR-8 ovarian = test system: OVCAR-8 ovarian
SR leukemia = test system: SR leukemia
BT-549 breast = test system: BT-549 breast
NCI-H460 lung = test system: NCI-H460 lung
HCT-116 colon = test system: HCT-116 colon
SNB-19 CNS = test system: SNB-19 CNS
786-0 renal = test system: 786-0 renal

Measured: TGI

OC1CC2CCCN(CCc3c1[nH]c1ccccc31)C2 (stereo unspecified)
> 100 µM: HS 578T breast | MDA-MB-231 breast | NCI-H522 lung | SNB-75 CNS | MALME-3M melanoma | NCI/ADR-RES ovarian | TK-10 renal | U251 CNS | HT29 colon | MDA-MB-435 | PC-3 prostate | K-562 leukemia | MCF7 breast | HL-60(TB) leukemia | DU-145 prostate | CAKI-1 renal | KM12 colon | SN12C renal | SK-MEL-2 melanoma | HCC-2998 colon | SF-268 CNS | SW-620 colon | CCRF-CEM leukemia | LOX IMVI melanoma | HOP-92 NSCLC | NCI-H226 lung | A549 NSCLC | UACC-257 melanoma | SF-539 CNS | SK-MEL-5 melanoma | SK-OV-3 ovarian | A498 renal | HCT-15 colon | ACHN renal | SK-MEL-28 melanoma | SF-295 CNS | NCI-H23 lung | OVCAR-4 ovarian | UACC-62 melanoma | MDA-N | T-47D breast | UO-31 renal | RPMI-8226 leukemia | COLO 205 colon | OVCAR-8 ovarian | SR leukemia | BT-549 breast | NCI-H460 lung | HCT-116 colon | SNB-19 CNS | 786-0 renal

From PubChem BioAssay (NCI)
